# Source: US6921531B2, “Administering bifunctional molecules containing a drug moiety and presenter protein ligand for therapy” (The Board of Trustees of the Leland Stanford Junior …, priority 1998, dated 2005)
# Tests used:
# FKBP12 = molecular target: T1, FKBP12 (Homo sapiens, UniProt P62942); test: Binding constants (Kd) for FKBP12, isothermal titration calorimetry
# T1 construct: GST (N, cleaved yes); made in house
# From the text: SLF was synthesized according to the procedures of Holt et al. [J. Am. Chem. Soc. 1993, 115, 9925]. SLF was coupled to the N-terminus of the resin-bound protected pYEEI peptide using PyBOP. The heterodimeric SLFpYEEI was deprotected and cleaved from the Novasyn TGT resin (Calbiochem-Novabiochem, San Diego, Ca.) using 25% trifluoroacetic acid and 2.5% triisopropyl silane in methylene chloride and the desired product was isolated using reverse phase HPLC. C. […] Recombinant FKBP12 was expressed as a GST fusion protein and bound to glutathione beads (Pharmacia). Using thrombin (Sigma) to cleave the GST-FKBP12 fusion protein at a thrombin cleavage site in the linker between GST and FKBP12, recombinant FKBP12 could be released from the glutathione beads where GST remained bound. FKBP52 was expressed with a tag of six histidine residues at its N-terminus (pET28c expression vector, Novagen). The recombinant protein was bound via the histidine tag to Ni^2+ NTA agarose beads (Qiagen), washed extensively and eluted with imidazole. […]
# SLFpYEEI and FKpYEEI are bifunctional molecules that can bind FKBP12 and FKBP52 as well as the Fyn SH2 domain (FIG. 2). The binding constants (Kd values) of the bifunctional molecules for the three proteins were measured using isothermal titration calorimetry (ITC) (Table 1).
# Lck SH2 domain = molecular target: T2, Lck SH2 domain (Homo sapiens, UniProt P06239); test: Competition binding assay of radioactive Lck SH2 domain to pYEEI beads; settings: 1.0 μM ligand plus FKBP12 2.0 μM
# T2 construct: The Fyn, Lck and PLC SH2 domains were expressed in bacteria as GST fusion proteins; GST (cleaved yes); made in house; host or cells: bacteria
# From the text: The pYEEI peptide was coupled to Affi-Gel 10 beads (Biorad) via its amino-group. The Fyn, Lck and PLC SH2 domains were expressed in bacteria as GST fusion proteins. The linker between the GST protein and the SH2 domain contained a thrombin cleavage site and a protein kinase A (PKA) phosphorylation site. The fusion protein on glutathione beads was radioactively labeled at the PKA phosphorylation site using PKA (Sigma). After extensive washing of the beads, the radioactive SH2 domain was released by cleavage with thrombin (Sigma). […] The beads were resuspended in […] PBS and the radioactivity was counted in a liquid scintillation counter after addition of 3 ml scintillation fluid. The radioactivity remaining in the 100 L supernatant was counted in the same way. It was determined that under the conditions described 65% Fyn, 25% PLC and 15%Lck SH2 domain were bound to the beads. […]
# To test if the presence of FKBP12 affects the affinity of FKpYEEI for other SH2 domains aside from the PLC SH2 domain, FKpYEEI and FKBP12 were added to binding reactions containing the Fyn, Lck or PLC SH2 domains (FIG. 10). […] The binding reactions were rotated at room temperature for 2 hours, centrifuged and analysed as described above. […]
# T2 sequence (P06239 127-224 limits assumed): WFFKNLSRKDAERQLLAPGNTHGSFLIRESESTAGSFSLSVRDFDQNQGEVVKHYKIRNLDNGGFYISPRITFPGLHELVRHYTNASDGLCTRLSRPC
# T1 sequence (P62942 whole entry, species assumed): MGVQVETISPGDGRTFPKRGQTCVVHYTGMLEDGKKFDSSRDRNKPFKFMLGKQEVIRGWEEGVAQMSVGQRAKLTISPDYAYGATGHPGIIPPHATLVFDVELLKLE
Compound,Kd (FKBP12) [nM],Effect of FKBP12 on affinity for the Lck SH2 domain (Lck SH2 domain)
CC[C@H](C)[C@H](NC(=O)[C@H](CCC(=O)O)NC(=O)[C@H](CCC(=O)O)NC(=O)[C@H](Cc1ccc(OP(=O)(O)O)cc1)NC(=O)OCC[C@@H]1/C=C(\C)C[C@H](C)C[C@H](OC)[C@H]2O[C@@](O)(C(=O)C(=O)N3CCCC[C@H]3C(=O)O[C@H](/C(C)=C/[C@@H]3CC[C@@H](O)[C@H](OC)C3)[C@H](C)[C@@H](O)CC1=O)[C@H](C)C[C@@H]2OC)C(=O)O [FKpYEEI],45,does not affect the affinity
CC[C@H](C)[C@H](NC(=O)[C@H](CCC(=O)O)NC(=O)[C@H](CCC(=O)O)NC(=O)[C@H](Cc1ccc(OP(=O)(O)O)cc1)NC(=O)COc1cccc([C@@H](CCc2ccc(OC)c(OC)c2)OC(=O)[C@@H]2CCCCN2C(=O)C(=O)C(C)(C)CC)c1)C(=O)O [SLFpYEEI],61,reduced binding
